Source: patent US6534504B1, “Indazolyloxy propanolamines for improving livestock production” (Eli Lilly and Company, priority 1999, dated 2003)
Like-named read-outs stand apart in the source and are kept apart here.

What was measured:
[1] = tested on: cattle; assay: Oral administration (gavage) to cattle: serum NEFA and SUN levels; format: in vivo, cattle (Angus/Angus cross steer calves); settings: 1 mg per kilogram body weight oral gavage, mean of five animals; for change in vivo at 1 mg/kg: Bos taurus
Procedure: In the present example, fifteen head of Angus/Angus cross steer calves, weighing approximately 484 pounds (220 kg) initially to 604 pounds (274 kg) by the end of these three trials, were placed in pens in the cattle facilities, at 5 calves per pen. Standard vaccination and coccidal control were administered.
Calves were fed ad libitum twice daily, approximately 10-15 pounds (4.54-6.81 kg)/day. The feeding times were staggered once treatment was initiatedto ensure that all calves were fed approximately one hour before the treatments were administered and blood samples were obtained. During the A.M. treatment period, the cattle were prevented from returning to feed until the +180 minute blood sample had been collected.
Treatments were administered once a day via oral gavage. The treatments contained 1 mg of test compound per kilogram body weight and were administered in a 50/50 PEG 200/water vehicle, followed with a flush of 20 mls of 50/50 PEG 200/water.
A baseline blood sample (T=0) was taken immediately before the oral gavage treatment was administered. At 90 minutes post-treatment (T+90 min) another blood sample was taken. The cattle were returned to their designated pens until 180 minutes post-treatment (T+180 min), when a third blood sample was collected. The calves were not allowed access to their feed until they had completed the 180 minute blood sample. Additional blood samples were collected from each calf at 24 and 48 hours post treatment.
All blood samples were taken from the jugular vein and placed into serum tubes. Serum was assayed on an IL Monarch analyzer. Blood samples were collected pretreatment (T=0), 90 minutes post-treatment (T+90 min), 180 minutes post-treatment (T+180 min) and 24 hours post-treatment (T+24 h) and 48 hours post-treatment (T+48 h). Sera at T=0, T+90 min, T+180 min, T+24 h, and T+48 h were analyzed for NEFA and SUN.

[2] = tested on: chickens; assay: Anabolic effects when administered in feed to chickens; format: in vivo, chicken (Peterson-Hubbard male chicks)
Description: Approximately 1500 Peterson-Hubbard day-old male chicks were used in a randomized, complete block design with 6 treatments (Control; Clenbuterol at 1 PPM; Compound 1 at 3 and 15 PPM (mg/kg feed); and Compound 5 at 3 and 15 PPM) using pen location in the barn as the blocking factor. Treatments were randomly allotted to pens within each block for a total of 6 pens per block and 6 blocks in the wing. Each treatment consisted of 6 pens, with 10 birds per pen, during the experimental period.
Day-of-age birds were obtained from Pine Manor Hatchery in Goshen, Ind. Approximately 40 birds per pen were setup at random upon receipt. On day 30 of the growout period, all birds were weighed and the 15 birds closest to the block mean were selected. These birds were allowed to acclimate until day 35 of age. On this day, all remaining birds were weighed again, and the 10 birds/pen closest to the block mean were chosen for the treatment phase. Birds were provided ad libitum access to feed and water throughout the trial. All birds were fed a 23% crude protein corn-soy ration from day 1 until day 18 of age. The feed was changed to a 20% crude protein corn-soy ration for day 18 to day 49. The treatment feed was mixed using the 20% crude protein corn-soy basal ration. Treatments were administered in the feed from day 35 through day 49. Feed consumption was calculated over the entire 14 day treatment period. Birds were weighed at trial completion (day 49), and transported to Purdue University meat laboratory for slaughter and carcass measurements on day 50. Weights of the hot carcass, fat pad, and viscera were taken on all animals. Weights of the bone-in, skin-on breast, and the bone-in, skin-on leg quarters were taken only on the control treatment and the high doses of both experimental compounds.

[3] = tested on: cattle; assay: Intravenous administration to cattle: serum NEFA and SUN levels; format: in vivo, cattle (Angus/Angus cross calves); settings: mean of five animals; for Δ % SUN 24 Hours (percent decrease in serum urea nitrogen compared with baseline T=0) / ΔNEFA 24 Hours (increase in NEFA in blood compared with baseline T=0): 40 μg per kilogram intravenously at 6:30 A.M. and 2:30 P.M., 24 hours post treatment; for ΔNEFA 15 Min. (increase in NEFA in blood compared with baseline T=0): 40 μg per kilogram intravenously, 15 minutes post treatment
Description: Angus/Angus cross steer calves, both heifers and steers, weighing approximately 282 pounds (128 kg) initially to 788 pounds (358 kg) over the course of these studies, were placed in pens at 5 calves per pen. The cattle were acclimated to the pens for at least 1 week prior to initiating the study.
Calves were fed ad libitum twice daily, (approximately 6-15 pounds (2.7-6.8 kg)/day). During the treatment day, in the A.M. period, the feeding times were staggered to ensure that all animals were fed approximately one hour before the treatments were administered. During the P.M. treatment period, the cattle were fed immediately after receiving the P.M. injection.
After taking a pretreatment (T=0) blood sample from each animal, 40 μg per kilogram of a test compound was administered intravenously in the jugular vein at 6:30 A.M. and 2:30 P.M. Each test compound was administered at a concentration of 1.00-1.25 mg/ml in a treatment vehicle that was a 50/50 mixture of polyethylene glycol 200/water.
A blood sample was taken at fifteen minutes post-treatment (T+15 min). The calves were returned to their respective pens until their next treatment, approximately eight hours later. The next morning at 6:30 A.M. a blood sample was collected from all calves at 24 hours post-treatment (T+24h). All blood samples were analyzed for the non-esterified fatty acid level (NEFA) and serum urea nitrogen level (SUN). The post-treatment NEFA and SUN levels in each individual animal were compared with the levels found before treatment.

[4] = 24 hours post treatment, read-out: Δ % SUN 24 Hours (percent decrease in serum urea nitrogen compared with baseline T=0)
[5] = 48 hours post treatment, read-out: Δ % SUN 48 Hours (percent decrease in serum urea nitrogen compared with baseline T=0)
[6] = 1 PPM in feed, 14 day treatment period
[7] = 3 PPM in feed, 14 day treatment period
[8] = 3 PPM in feed, 14 day treatment period (day 35 to 49)
[9] = 15 PPM in feed, 14 day treatment period
[10] = 15 PPM in feed, 14 day treatment period (day 35 to 49)

Structure (SMILES) | ΔNEFA 24 Hours (increase in NEFA in blood compared with baseline T=0) ([1]; 24 hours post treatment) | change in vivo at 1 mg/kg [1, 4] | change in vivo at 1 mg/kg [1, 5] | improvement in feed conversion versus control [2, 6] | increase in weight gain over control [2, 6] | Δ % SUN 24 Hours (percent decrease in serum urea nitrogen compared with baseline T=0) [3] | ΔNEFA 24 Hours (increase in NEFA in blood compared with baseline T=0) [3] | ΔNEFA 15 Min. (increase in NEFA in blood compared with baseline T=0) [3] | improvement of feed efficiency [2, 7] | increase in weight gain over control [2, 8] | improvement of feed efficiency [2, 9] | increase in weight gain over control [2, 10]
CC(C)(Cc1ccc(Oc2ccc(C(N)=O)cc2)cc1)NC[C@H](O)COc1cccc2[nH]c(=S)[nH]c12 | 17 µmol/L | -8% | -12% | – | – | – | – | – | – | – | – | –
CC(C)(Cc1ccc(Oc2ncccc2C(N)=O)cc1)NC[C@H](O)COc1cccc2[nH]ccc12 | -30 µmol/L | -42% | -30% | – | – | – | – | – | – | – | – | –
CC(C)(Cc1ccc(Oc2ncccc2C(N)=O)cc1)NC[C@H](O)COc1cccc2[nH]c(=S)[nH]c12 | 101 µmol/L | -17% | -13% | – | – | – | – | – | – | – | – | –
CC(C)(Cc1ccc(Oc2ncccc2C(N)=O)cc1)NC[C@H](O)COc1cccc2[nH]c(=O)[nH]c12 | 10 µmol/L | -22% | -19% | – | – | – | – | – | – | – | – | –
CC(C)(Cc1ccc(Oc2ccc(C#N)cn2)cc1)NC[C@H](O)COc1cccc2[nH]ccc12 | 63 µmol/L | -55% | -40% | – | – | – | – | – | – | – | – | –
CC(C)(Cc1ccc(Oc2ccc(C#N)cn2)cc1)NC[C@H](O)COc1cccc2[nH]c(=O)[nH]c12 | 18 µmol/L | 2% | 5% | – | – | – | – | – | – | – | – | –
CC(C)(Cc1ccc(Oc2ccc(C(=O)N3CCOCC3)cn2)cc1)NC[C@H](O)COc1cccc2[nH]ccc12 | -47 µmol/L | -45% | -28% | – | – | – | – | – | – | – | – | –
CC(C)(Cc1ccc(Oc2ccc(C(=O)N3CCOCC3)cn2)cc1)NC[C@H](O)COc1cccc2[nH]c(=S)[nH]c12 | 6 µmol/L | -18% | -15% | – | – | – | – | – | – | – | – | –
CC(C)(Cc1ccc(Oc2ccc(S(C)(=O)=O)cc2)cc1)NC[C@H](O)COc1cccc2[nH]c(=S)[nH]c12 | 37 µmol/L | -1% | -5% | – | – | – | – | – | – | – | – | –
CC(C)(Cc1ccc(Oc2ccc(S(C)(=O)=O)cc2)cc1)NC[C@H](O)COc1cccc2[nH]c(=O)[nH]c12 | -6 µmol/L | -10% | -6% | – | – | – | – | – | – | – | – | –
CC(C)(C)NCC(O)c1cc(Cl)c(N)c(Cl)c1 (stereo not shown) [Clenbuterol] | – | – | – | did not show an improvement | 3.54% | – | – | – | – | – | – | –
CC(C)(Cc1ccc(Oc2ccc(C(N)=O)cn2)cc1)NC[C@H](O)COc1cccc2[nH]ncc12 [Compound 1] | 329 µmol/L | -38% | -32% | – | – | −28.7% | 820.9 µmol/L | 554.4 µmol/L | not improved | 3.54% | 4.67% | 11.50%
CC(C)(Cc1ccc(Oc2ccc(C#N)cn2)cc1)NC[C@H](O)COc1cccc2[nH]ncc12 [Compound 3] | 349 µmol/L | -58% | -57% | – | – | −24.7% | 1069.3 µmol/L | 269.4 µmol/L | – | – | – | –
CC(C)(Cc1ccc(Oc2ccc(C(=O)N3CCOCC3)cn2)cc1)NC[C@H](O)COc1cccc2[nH]ncc12 [Compound 4] | 1129 µmol/L | -47% | -48% | – | – | −40.1% | 1251.8 µmol/L | 194.8 µmol/L | – | – | – | –
CC(C)(Cc1ccc(Oc2ccc(S(C)(=O)=O)cc2)cc1)NC[C@H](O)COc1cccc2[nH]ncc12 [Compound 5] | 1216 µmol/L | -33% | -60% | – | – | −25.4% | 1541.9 µmol/L | 397.3 µmol/L | not improved | 2.65% | 3.27% | 8.85%
